{"source": "patent US20260337593A1", "about": "“METHOD AND MEANS FOR ENGINEERING NON-RIBOSOMAL PEPTIDES” (JOHANN WOLFGANG GOETHE-UNIVERSITÄT FRANKFURT AM MAIN, priority 2022, published 2026)", "origin": "cited, not measured here", "target": "Mycobacterium tuberculosis proteasome (Mycobacterium tuberculosis, UniProt P9WHT9)", "sequence (P9WHT9 whole entry, looked up)": "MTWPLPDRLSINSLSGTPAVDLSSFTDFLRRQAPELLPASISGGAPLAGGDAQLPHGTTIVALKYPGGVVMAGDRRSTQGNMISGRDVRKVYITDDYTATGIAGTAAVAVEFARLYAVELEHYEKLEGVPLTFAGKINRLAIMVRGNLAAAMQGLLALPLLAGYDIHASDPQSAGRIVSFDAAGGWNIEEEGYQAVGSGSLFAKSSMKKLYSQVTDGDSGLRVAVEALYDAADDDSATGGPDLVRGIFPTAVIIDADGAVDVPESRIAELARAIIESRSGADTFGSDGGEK", "settings": "role: inhibitor; literature reference 60"}
{"smiles": "CCCCCCCCC[C@@H](O)CC(=O)N[C@@H](CC(N)=O)C(=O)N[C@@H](CCC(N)=O)C(=O)N[C@H](C=O)CC(C)C", "note": "[fellutamide B]", "values": [{"measurement": "binding of the active site's threonine", "value": "reversible binding"}]}
